hygroscopicity, symptoms / behavior and Deaths data for 1 compound are collected here from patent US4323550A, “Halogenohydrates of N,N-disubstituted derivatives of piperazine having anticariogenic properties” (priority 1976, dated 1982).

Molecules are shown by their SMILES.

The nature of one data set: Hygroscopicity. The following applies: crystals. Type of data set: physicochemical.
The subject of a further data set is rats. Put plainly: in vivo. Type of data set: in vivo. Conditions: rat; for Deaths: oral. The protocol:
By way of example there are described below the comparative tests made on difluorohydrate of N,N'-di(hydroxyethyl) piperazine and on fluorohydrate of hexadecylamine or "ELMEX 242".
The acute toxidity was studies in rats and in mice.
The animals came from a homogeneous breed. The mice weighed between 19 and 21 g and the rats weighed from 120 to 140 g. The mice were grouped in lots of 10 and the rats in lots of 8.
The administrations took place orally at a volume of 0.5 ml per 20 g of mouse and 1 ml per 100 g of rat. The LD50 was determined by the method of Lichfield and Wilcoxon.
As regards the difluorohydrate of N,N'-di(hydroxyethyl) piperazine, the administered solution was prepared by diluting the mother solution to 65.4%, the dilutions being made after having weighed this solution. The administered dose is expressed by weight, taking account of the indicated strength of this solution.
For the solid "ELMEX 242" an aqueous suspension was prepared with the aid of solubilizing agents (e.g. Tween-polyoxyethylene sorbitan monolaurate). A very thick suspension is then obtained which tends to foam heavily, is difficult to get into the esophageal sound, and the determination of its volume is rendered difficult by the foam.
The results obtained with the "ELMEX" are therefore rather approximate.

As for `OCCN1CCN(CCO)CC1` [DIFLUOROHYDRATE OF N,N'-DI(HYDROXY-ETHYL) PIPERAZINE], the results for the hygroscopicity entry in the data set “Hygroscopicity” and in “Hygroscopicity” (listed as difluorohydrate) were “very hygroscopic” and “particularly hygroscopic”, respectively. In addition, in the data set on rats (in vivo, po), the symptoms / behavior entry is “Some diarrhea and some trembling appear”. Moreover, the Deaths with rats (250 mg/kg, D + 1, 8 per lot) is given as 0; in the data set on rats (250 mg/kg, D + 2, 8 per lot), 0; in the data set with rats (250 mg/kg, D + 5, 8 per lot) it was 0; with rats (250 mg/kg, D + 10, 8 per lot), 0; with rats (500 mg/kg, D + 1, 8 per lot), 0; in the data set with rats (500 mg/kg, D + 2, 8 per lot) it was 0. Also, the Deaths with rats (500 mg/kg, D + 5, 8 per lot) was determined as 0; with rats (500 mg/kg, D + 10, 8 per lot), 0; in the data set with rats (750 mg/kg, D + 1, 8 per lot) it was 1; in the data set with rats (750 mg/kg, D + 2, 8 per lot) it was 3; in the data set with rats (750 mg/kg, D + 5, 8 per lot), 4; in the data set on rats (750 mg/kg, D + 10, 8 per lot), 4. Further, the Deaths with rats (1000 mg/kg, D + 1, 8 per lot) is listed as 2; in the data set with rats (1000 mg/kg, D + 2, 8 per lot), 5; in the data set on rats (1000 mg/kg, D + 5, 8 per lot), 6; with rats (1000 mg/kg, D + 10, 8 per lot), 6; with rats (1250 mg/kg, D + 1, 8 per lot) it was 5; in the data set with rats (1250 mg/kg, D + 2, 8 per lot) it was 7. Also, the Deaths in the data set on rats (1250 mg/kg, D + 5, 8 per lot) amounted to 8; with rats (1250 mg/kg, D + 10, 8 per lot), 8.
